Assay results: PubChem BioAssay AID248 (DTP/NCI, 2004)
Inconclusive results and toxic doses are left out. Cut-off read from the data, not from the text of the source: active = T/C of 150% or more; inactive = T/C below 125%.

Test system: L1210 leukemia ip in BDF1 mice, survival T/C
Experiment: NCI In Vivo Anticancer Drug Screen. Data for tumor model L1210 Leukemia (intraperitoneal) in B6D2F1 (BDF1) mice
Details: endpoint: mean survival time, higher = longer survival
Summary of the method: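 Value reflects the ratio of survival in compound-treated mice to survival in vehicle-treated controls, with both groups carrying the same transplanted tumor.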

Measured: T/C

NC(=S)Nc1ccccn1
inactive: dose: 25.0 mg/kg/injection, schedule: Q01DX009 (ip), vehicle: saline with Tween-80 103 % of control | dose: 50.0 mg/kg/injection, schedule: Q01DX009 (ip), vehicle: saline with Tween-80 90 % of control | dose: 100.0 mg/kg/injection, schedule: Q01DX009 (ip), vehicle: saline with Tween-80 101 % of control | dose: 100.0 mg/kg/injection, schedule: Q04DX003 (ip), vehicle: saline with Tween-80 98 % of control

CC(N)C(=O)O (stereo not given)
inactive: dose: 25.0 mg/kg/injection, schedule: Q04DX002 (ip), vehicle: saline 101 % of control | dose: 50.0 mg/kg/injection, schedule: Q04DX002 (ip), vehicle: saline 101 % of control | dose: 100.0 mg/kg/injection, schedule: Q01DX001 (ip), vehicle: saline 92 % of control | dose: 100.0 mg/kg/injection, schedule: Q01DX009 (ip), vehicle: saline 104 % of control | dose: 100.0 mg/kg/injection, schedule: Q04DX002 (ip), vehicle: saline 104 % of control | dose: 100.0 mg/kg/injection, schedule: Q04DX003 (ip), vehicle: saline 97 % of control | dose: 200.0 mg/kg/injection, schedule: Q01DX001 (ip), vehicle: saline 96 % of control | dose: 200.0 mg/kg/injection, schedule: Q01DX009 (ip), vehicle: saline 91 % of control | dose: 200.0 mg/kg/injection, schedule: Q04DX003 (ip), vehicle: saline 100 % of control | dose: 400.0 mg/kg/injection, schedule: Q01DX001 (ip), vehicle: saline 105 % of control | dose: 400.0 mg/kg/injection, schedule: Q01DX009 (ip), vehicle: saline 98 % of control | dose: 400.0 mg/kg/injection, schedule: Q04DX003 (ip), vehicle: saline 100 % of control

CCOC(=O)c1ccc(NC(=O)Nc2ccccc2C(=O)OC)cc1
inactive: dose: 100.0 mg/kg/injection, schedule: Q01DX009 (ip), vehicle: Klucel (hydroxypropylcellulose) (HPC) 110 % of control | dose: 200.0 mg/kg/injection, schedule: Q01DX009 (ip), vehicle: Klucel (hydroxypropylcellulose) (HPC) 100 % of control | dose: 400.0 mg/kg/injection, schedule: Q01DX009 (ip), vehicle: Klucel (hydroxypropylcellulose) (HPC) 94 % of control

N#CSCN1C(=O)C2CC=CCC2C1=O (stereo not given)
inactive: dose: 25.0 mg/kg/injection, schedule: Q04DX003 (ip), vehicle: saline with Tween-80 97 % of control
